Experiment [1] deals with pancreatic adenocarcinoma. The experiment can be described thus: Retrospective study of tumor hENT1 expression (IHC, SP120) and overall survival in RTOG 9704 patients given adjuvant gemcitabine or 5FU. Also on record: Median OS in Gem hENT1-Low Patients / Median OS in Gem hENT1-High Patients: unit not given here. The conditions noted are these: for median OS as hENT1 expression increases from No to Low to High: Method Five (percent negative staining), FIG. 18; for median OS as hENT1 expression increases from Negative to Weak to Moderate to Strong: Method Four (staining intensity), FIG. 30; for median OS as hENT1 expression (H-score subgroup) increases: Method One (H-score), FIG. 22; for OS across High, Mid and No hENT1 subgroups: Method Six with No hENT1 category (membranes resolvable at 10×), FIGS. 33-34; for OS of Low hENT1 subgroup compared to High hENT1 subgroup: Method Six; for median OS as hENT1 expression increases from Negative to Segmental to Diffuse: Method Three (staining pattern), FIG. 26; for OS of subgroup N, 20× or 40× compared to subgroup PP at 2×, 4× or 10×: Method Two (magnification), FIGS. 15-16; for HR (CI) for hENT1-Low vs -High in Gem Patients / HR for Gem vs 5-FU in hENT1-High Patients / HR for Gem vs 5-FU in hENT1-Low Patients: overall survival. The class given is in vivo, human. The text has this:
Method One for determining a hENT1 endpoint is an H-score. The H-score is a continuous variable that takes into account both the percentage of cells that are positive for the antigen in question, as well as the intensity of staining with the relevant antibody (McCarty et al. (1986) Cancer Research (Supp) 46, 4244s-4248s). A scoring algorithm was used to capture the hENT1 expression results. […]
Method Four for determining a hENT1 endpoint is based on highest percentage of hENT1 membrane staining intensity. The staining intensity for a tissue core is determined using the parameters described for the H-score (0, 1+, 2+, 3+). The percentage of each parameter represented by the tumor is determined. If a score of only 0 is obtained, the endpoint is considered Negative (N). For all other samples (e.g. those that contain scores with 0, 1+, 2+, and/or 3+), the endpoint is determined by the non-0 membrane intensity represented in the highest percentage (see FIG. 1). For example, if the sample is 50% 0, 20% 1+, 30% 2+ and 0% 3+, such sample would be referred to as 2+. If 2 intensities have the same percentage then the lower of the 2 intensities is used. A staining intensity score of 0 is referred to as Negative (N), a staining intensity score of 1+ is referred to as Weak (W), a staining intensity score of 2+ is referred to as Moderate (M), and a staining intensity score of 3+ is referred to as Strong (S). If there are multiple evaluations made on a patient, the maximum result (i.e., S>M>W) from the evaluations is used. There may be circumstances where if multiple evaluations are made on a patient, the minimum result from the evaluations is used. […]

In experiment [2] the test system is pancreatic cancer. The settings on record: Stage III/IV disease, gemcitabine monotherapy; cited from earlier work.
[3] abbreviates: 50% tumor staining, Low group: >50% of tumor is negative.
Where [4] appears, read: Magnification (intensity), Low group: unequivocal membranes visible only at 20x, 40x or negative.
[5] abbreviates: Magnification and % tumor staining, Low group: membranes visible only at 20x, 40x or negative OR >=50% of tumor is negative.
The mark [6] stands for this setting: High = PP at 2×, 4× and/or 10× AND negative tumor tissue <=50%, FIGS. 7-8.
Setting [7] is: High = at least 50% of tumor displays membrane staining at 10× ocular, FIGS. 4-5.
The mark [8] stands for this setting: staining variable H-score, Low group: H-score <50.

Each structure is given as a SMILES string.

As for `Nc1ccn([C@@H]2O[C@H](CO)[C@@H](O)C2(F)F)c(=O)n1` [gemcitabine], in experiment [1] (setting [3]), the “Median OS in Gem hENT1-High Patients” value is given as 19.6, the “Median OS in Gem hENT1-Low Patients” value is on record as 14.2, the “HR (CI) for hENT1-Low vs -High in Gem Patients” value (“HR (CI) for hENT1-Low vs -High” for short) worked out at 0.61 and the “HR for Gem vs 5-FU in hENT1-High Patients” value came out at 0.84. Besides, the “HR for Gem vs 5-FU in hENT1-Low Patients” value in experiment [1] (setting [3]) was 1.37. Besides, in experiment [1] (setting [4]), the “Median OS in Gem hENT1-High Patients” value worked out at 21.0, the “Median OS in Gem hENT1-Low Patients” value was determined as 14.8, the “HR (CI) for hENT1-Low vs -High” value is on record as 0.67 and the “HR for Gem vs 5-FU in hENT1-High Patients” value amounted to 0.87. Further, in experiment [1] (setting [5]), the “Median OS in Gem hENT1-High Patients” value is 24.2, the “Median OS in Gem hENT1-Low Patients” value is given as 14.8, the “HR (CI) for hENT1-Low vs -High” value came to 0.58 and the “HR for Gem vs 5-FU in hENT1-High Patients” value stood at 0.77. Further, in experiment [1], the “median OS as hENT1 expression increases from No to Low to High” value was “increases”; the “median OS as hENT1 expression increases from Negative to Weak to Moderate to Strong” value was “increases”; the “median OS as hENT1 expression (H-score subgroup) increases” value is recorded as “increases”; the “OS across High, Mid and No hENT1 subgroups” value was “the subgroup with No hENT1 expression exhibited the shortest OS followed by the Mid hENT1 subgroup and the High hENT1 subgroup had the longest OS”. Moreover, in experiment [1], the “median OS as hENT1 expression increases from Negative to Segmental to Diffuse” value is “increases” and the “OS of subgroup N, 20× or 40× compared to subgroup PP at 2×, 4× or 10×” value is “exhibited shorter OS”. Moreover, in experiment [1] (Method Five, FIG. 19), the “OS of No hENT1 subgroup compared to Low and High hENT1 subgroups” value is given as “exhibited shorter OS”. In addition, the “OS of patients with observable hENT1 expression (Low and High combined) compared to no hENT1 expression” value in experiment [1] (Method Five, FIG. 20) is given as “exhibit longer OS”. In addition, in experiment [1] (Method Four, FIG. 31), the “OS of negative hENT1 subgroup compared to Weak, Moderate or Strong subgroups” value is “exhibited shorter OS”. For the same compound, the “OS of subgroup H-score<=20 compared to H-score between 20 and 80 and H-score>=80” value in experiment [1] (Method One, FIG. 23) is “exhibited shorter OS”. Besides, in experiment [1] (Method One, FIG. 24), the “OS of patients with H-score>=50 compared to H-score <50” value is “exhibited longer OS”. The “OS of Low hENT1 subgroup compared to High hENT1 subgroup” value (shortened to “OS … compared to High hENT1 subgroup”) in experiment [1] (setting [6]) was “exhibited shorter OS”. For the same compound, in experiment [1] (setting [7]), the “OS … compared to High hENT1 subgroup” value is given as “exhibited shorter OS”. Further, the “OS of negative hENT1 subgroup compared to Segmental or Diffuse subgroups” value in experiment [1] (Method Three, FIG. 27) is on record as “exhibited shorter OS”. The “OS of patients with detectable hENT1 expression (S or D) compared to no hENT1 expression” value in experiment [1] (Method Three, FIG. 28) is “exhibit longer OS”. Further, in experiment [1] (for each of the hENT1 cut-offs of Table 2), the “median overall survival of hENT1-high patients compared to hENT1-low patients” value is reported as “longer”. For the same compound, in experiment [1] (setting [8]), the “HR (CI) for hENT1-Low vs -High” value is given as 0.63, the “HR for Gem vs 5-FU in hENT1-High Patients” value is recorded as 0.86, the “HR for Gem vs 5-FU in hENT1-Low Patients” value was determined as 1.35 and the “Median OS in Gem hENT1-High Patients” value worked out at 19.6. Moreover, the “Median OS in Gem hENT1-Low Patients” value in experiment [1] (setting [8]) is recorded as 14.2. For the same compound, the “median OS” value in experiment [2] was 5-7 months.

Turning to `O=c1[nH]cc(F)c(=O)[nH]1` [5FU, 5-Fluorouracil], in experiment [1], the “median OS as hENT1 expression increases from No to Low to High” value was “do not demonstrate an improvement in OS with increasing hENT1 expression”; the “median OS as hENT1 expression increases from Negative to Weak to Moderate to Strong” value was “do not demonstrate an improvement in OS with increasing hENT1 expression”; the “median OS as hENT1 expression (H-score subgroup) increases” value is recorded as “do not demonstrate an improvement in OS with increasing hENT1 expression”; the “OS across High, Mid and No hENT1 subgroups” value is “do not demonstrate improvement in OS between the High, Mid and No hENT1 subgroups”. Moreover, in experiment [1], the “median OS as hENT1 expression increases from Negative to Segmental to Diffuse” value is on record as “do not demonstrate an improvement in OS with increasing hENT1 expression” and the “OS of subgroup N, 20× or 40× compared to subgroup PP at 2×, 4× or 10×” value is recorded as “do not demonstrate an improvement in OS”. Further, the “OS … compared to High hENT1 subgroup” value in experiment [1] (setting [6]) is “do not demonstrate improvement in OS between the High and Low subgroups”. Further, in experiment [1] (setting [7]), the “OS … compared to High hENT1 subgroup” value was “do not demonstrate improvement in OS between the High and Low subgroups”.
